# Experimental data: ChEMBL document CHEMBL1201861, “Genomics of Drug Sensitity in Cancer screening data, Wellcome Trust Sanger Institute”
# Counter-ions that a name gives are not always drawn.
# Tests used:
# HGC-27 = test: cells; type: functional, cell-based, Homo sapiens;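 further: growth inhibition of human HGC-27 cells, read out in a cell viability assay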
# Description: SANGER: Inhibition of human HGC-27 cell growth in a cell viability assay.
# CCF-STTG1 = test: cells; type: functional, cell-based, Homo sapiens;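 further: growth inhibition of human CCF-STTG1 cells, determined with a cell viability read-out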
# Description: SANGER: Inhibition of human CCF-STTG1 cell growth in a cell viability assay.
# DK-MG = test: cells; type: functional, cell-based, Homo sapiens;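 further: growth inhibition of DK-MG cells, read out with a cell viability assay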
# Description: SANGER: Inhibition of human DK-MG cell growth in a cell viability assay.
# J82 = test: cells; type: functional, cell-based, Homo sapiens;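 further: growth inhibition of J82 cells, read out with a cell viability assay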
# Description: SANGER: Inhibition of human J82 cell growth in a cell viability assay.
# SNU-475 = test: cells; type: functional, cell-based, Homo sapiens
# Description: SANGER: Inhibition of human SNU-475 cell growth in a cell viability assay.
# P12-Ichikawa = test: cells; type: functional, cell-based, Homo sapiens
# NCI-H1693 = test: cells; type: functional, cell-based, Homo sapiens;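 further: growth inhibition of the human cell line, read out with a cell viability assay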
# Description: SANGER: Inhibition of human NCI-H1693 cell growth in a cell viability assay.
# L-540 = test: cells; type: functional, cell-based, Homo sapiens;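 further: growth inhibition of the human L-540 cell line, read out with a viability assay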
# Description: SANGER: Inhibition of human L-540 cell growth in a cell viability assay.
# TYK-nu = test: cells; type: functional, cell-based, Homo sapiens;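 further: growth inhibition of human TYK-nu cells, read out by a cell viability assay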
# Description: SANGER: Inhibition of human TYK-nu cell growth in a cell viability assay.
# ST486 = test: SANGER: Inhibition of human ST486 cell growth in a cell viability assay.; type: functional, cell-based
# C3A = test: cells; type: functional, cell-based, Homo sapiens;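 further: growth inhibition of C3A human cells, quantified with a cell viability readout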
# Description: SANGER: Inhibition of human C3A cell growth in a cell viability assay.
# DoTc2-4510 = test: cells; type: functional, cell-based, Homo sapiens
# NCI-H1618 = test: cells; type: functional, cell-based, Homo sapiens;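 further: growth inhibition of human NCI-H1618 cells, measured by a cell viability assay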
# Description: SANGER: Inhibition of human NCI-H1618 cell growth in a cell viability assay.
# NCI-H2170 = test: cells; type: functional, cell-based, Homo sapiens;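 further: cell viability assay measuring growth inhibition of human NCI-H2170 cancer cells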
# Description: SANGER: Inhibition of human NCI-H2170 cell growth in a cell viability assay.
# COLO 205 = test: cells; type: functional, cell-based, Homo sapiens
# Description: SANGER: Inhibition of human COLO-205 cell growth in a cell viability assay.
# EFO-21 = test: cells; type: functional, cell-based, Homo sapiens;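 further: growth inhibition of EFO-21 cells measured with a viability assay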
# Description: SANGER: Inhibition of human EFO-21 cell growth in a cell viability assay.
# Detroit 562 = test: cells; type: functional, cell-based, Homo sapiens;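 further: growth inhibition of human Detroit 562 cells, read out by a cell viability assay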
# Description: SANGER: Inhibition of human Detroit562 cell growth in a cell viability assay.
# HCC1143 = test: cells; type: functional, cell-based, Homo sapiens;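 further: growth inhibition of human HCC1143 cells, read out with a cell viability assay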
# Description: SANGER: Inhibition of human HCC1143 cell growth in a cell viability assay.
# SK-CO-1 = test: cells; type: functional, cell-based, Homo sapiens;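 further: growth inhibition of SK-CO-1 cells, determined by a viability readout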
# Description: SANGER: Inhibition of human SK-CO-1 cell growth in a cell viability assay.
# PLC-PRF-5 = test: cells; type: functional, cell-based, Homo sapiens;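 further: growth inhibition of human PLC-PRF-5 cells, read out with a viability assay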
# Description: SANGER: Inhibition of human PLC-PRF-5 cell growth in a cell viability assay.
# LC-1F = test: cells; type: functional, cell-based, Homo sapiens;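 further: growth inhibition of human LC-1F cells, read out with a cell viability assay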
# Description: SANGER: Inhibition of human LC-1F cell growth in a cell viability assay.
# UACC-812 = test: cells; type: functional, cell-based, Homo sapiens
# Description: SANGER: Inhibition of human UACC-812 cell growth in a cell viability assay.
# IPC-298 = test: SANGER: Inhibition of human IPC-298 cell growth in a cell viability assay.; type: functional, cell-based
# CESS = test: SANGER: Inhibition of human CESS cell growth in a cell viability assay.; type: functional, cell-based
# MeWo = test: cells; type: functional, cell-based, Homo sapiens;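 further: growth inhibition of MeWo cells, determined by a cell viability readout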
# Description: SANGER: Inhibition of human Mewo cell growth in a cell viability assay.
# NCI-H1993 = test: cells; type: functional, cell-based, Homo sapiens;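 further: growth inhibition of the cancer cell line, assessed with a cell viability assay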
# Description: SANGER: Inhibition of human NCI-H1993 cell growth in a cell viability assay.
# HSC-3 = test: cells; type: functional, cell-based, Homo sapiens
# Description: SANGER: Inhibition of human HSC-3 cell growth in a cell viability assay.
# MIA PaCa-2 = test: cells; type: functional, cell-based, Homo sapiens;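 further: growth inhibition of MIA PaCa-2 cells, read out with a cell viability assay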
# Description: SANGER: Inhibition of human MIA-PaCa-2 cell growth in a cell viability assay.
# KYSE-140 = test: cells; type: functional, cell-based, Homo sapiens;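 further: cell viability assay measuring growth inhibition in human KYSE-140 cells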
# Description: SANGER: Inhibition of human KYSE-140 cell growth in a cell viability assay.
# YAPC = test: cells; type: functional, cell-based, Homo sapiens;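 further: growth inhibition of YAPC cells, measured with a cell viability assay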
# Description: SANGER: Inhibition of human YAPC cell growth in a cell viability assay.
# NCI-H2009 = test: cells; type: functional, cell-based, Homo sapiens;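 further: cell viability assay measuring inhibition of NCI-H2009 cell growth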
# Description: SANGER: Inhibition of human NCI-H2009 cell growth in a cell viability assay.
# HEC-1 = test: cells; type: functional, cell-based, Homo sapiens;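 further: growth inhibition of the cell line, read out with a cell viability assay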
# Description: SANGER: Inhibition of human HEC-1 cell growth in a cell viability assay.
# NCI-H1436 = test: cells; type: functional, cell-based, Homo sapiens;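 further: growth suppression of human NCI-H1436 cells, determined with a cell viability readout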
# Description: SANGER: Inhibition of human NCI-H1436 cell growth in a cell viability assay.
# RT-4 = test: SANGER: Inhibition of human RT4 cell growth in a cell viability assay.; type: functional, cell-based
# UMC-11 = test: cells; type: functional, cell-based, Homo sapiens;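 further: growth inhibition of UMC-11 cells, read out with a cell viability assay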
# Description: SANGER: Inhibition of human UMC-11 cell growth in a cell viability assay.
# NCI-H1792 = test: cells; type: functional, cell-based, Homo sapiens;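 further: growth inhibition of human NCI-H1792 cells, read out as cell viability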
# Description: SANGER: Inhibition of human NCI-H1792 cell growth in a cell viability assay.
# MFE-296 = test: SANGER: Inhibition of human MFE-296 cell growth in a cell viability assay.; type: functional, cell-based
# CAL-85-1 = test: cells; type: functional, cell-based, Homo sapiens;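 further: growth inhibition of human CAL-85-1 cells, read out with a cell viability assay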
# Description: SANGER: Inhibition of human CAL-85-1 cell growth in a cell viability assay.
compound,measurement,setting,value
COC1=CC(c2cc3ccccc3[nH]2)=N/C1=C\c1[nH]c(C)cc1C [OBATOCLAX MESYLATE],IC50,"HGC-27; Homo sapiens, HGC-27",< 0.0625 µM
same,IC50,"CCF-STTG1; Homo sapiens, CCF-STTG1",0.926 µM
same,IC50,"DK-MG; Homo sapiens, DK-MG",0.71 µM
same,IC50,"J82; Homo sapiens, J82",0.109 µM
same,IC50,"SNU-475; Homo sapiens, SNU-475",> 16 µM
same,IC50,"P12-Ichikawa; Homo sapiens, P12-Ichikawa",0.0735 µM
same,IC50,"NCI-H1693; Homo sapiens, NCI-H1693",2 µM
same,IC50,"L-540; Homo sapiens, L-540",0.216 µM
same,IC50,"TYK-nu; Homo sapiens, TYK-nu",0.179 µM
same,IC50,"ST486; Homo sapiens, ST486",< 0.0625 µM
same,IC50,"C3A; Homo sapiens, C3A",0.374 µM
same,IC50,"DoTc2-4510; Homo sapiens, DoTc2-4510",0.0339 µM
same,IC50,"NCI-H1618; Homo sapiens, NCI-H1618",2.88 µM
same,IC50,"NCI-H2170; Homo sapiens, NCI-H2170",0.683 µM
same,IC50,"COLO 205; Homo sapiens, COLO 205",0.0572 µM
same,IC50,"EFO-21; Homo sapiens, EFO-21",0.841 µM
same,IC50,"Detroit 562; Homo sapiens, Detroit 562",0.489 µM
same,IC50,"HCC1143; Homo sapiens, HCC1143",0.174 µM
same,IC50,"SK-CO-1; Homo sapiens, SK-CO-1",2.62 µM
same,IC50,"PLC-PRF-5; Homo sapiens, PLC-PRF-5",1.15 µM
same,IC50,"LC-1F; Homo sapiens, LC-1F",3.72 µM
same,IC50,"UACC-812; Homo sapiens, UACC-812",11.7 µM
same,IC50,"IPC-298; Homo sapiens, IPC-298",< 0.0625 µM
same,IC50,"CESS; Homo sapiens, CESS",0.0827 µM
same,IC50,"MeWo; Homo sapiens, MeWo",4.96 µM
same,IC50,"NCI-H1993; Homo sapiens, NCI-H1993",> 16 µM
same,IC50,"HSC-3; Homo sapiens, HSC-3",< 0.0625 µM
same,IC50,"MIA PaCa-2; Homo sapiens, MIA PaCa-2",0.233 µM
same,IC50,"KYSE-140; Homo sapiens, KYSE-140",< 0.0625 µM
same,IC50,"YAPC; Homo sapiens, YAPC",5.99 µM
same,IC50,"NCI-H2009; Homo sapiens, NCI-H2009",0.347 µM
same,IC50,"HEC-1; Homo sapiens, HEC-1",0.0368 µM
same,IC50,"NCI-H1436; Homo sapiens, NCI-H1436",1.26 µM
same,IC50,"RT-4; Homo sapiens, RT-4",1.6 µM
same,IC50,"UMC-11; Homo sapiens, UMC-11",1.4 µM
same,IC50,"NCI-H1792; Homo sapiens, NCI-H1792",0.377 µM
same,IC50,"MFE-296; Homo sapiens, MFE-296",0.139 µM
same,IC50,"CAL-85-1; Homo sapiens, CAL-85-1",0.0183 µM
BLEOMYCIN,IC50,HGC-27; hgc-27,2.84 µM
same,IC50,CCF-STTG1; ccf-sttg1,4.56 µM
same,IC50,DK-MG; dk-mg,85.8 µM
same,IC50,J82; j82,0.774 µM
same,IC50,SNU-475; snu-475,67.5 µM
same,IC50,P12-Ichikawa; p12-ichikawa,5.55 µM
same,IC50,NCI-H1693; nci-h1693,16.6 µM
same,IC50,L-540; l-540,23.5 µM
same,IC50,TYK-nu; tyk-nu,3.03 µM
same,IC50,ST486; st486,6.39 µM
same,IC50,C3A; c3a,0.296 µM
same,IC50,DoTc2-4510; dotc2-4510,0.378 µM
same,IC50,NCI-H1618; nci-h1618,5.99 µM
same,IC50,NCI-H2170; nci-h2170,0.162 µM
same,IC50,COLO 205; colo-205,3.24 µM
same,IC50,EFO-21; efo-21,4.33 µM
same,IC50,Detroit 562; detroit 562,11.9 µM
same,IC50,HCC1143; hcc1143,27.2 µM
same,IC50,SK-CO-1; sk-co-1,0.247 µM
same,IC50,PLC-PRF-5; plc-prf-5,281 µM
same,IC50,LC-1F; lc-1f,49.4 µM
same,IC50,UACC-812; uacc-812,99.6 µM
same,IC50,IPC-298; ipc-298,2.21 µM
same,IC50,CESS; cess,0.000546 µM
same,IC50,MeWo; mewo,148 µM
same,IC50,NCI-H1993; nci-h1993,646 µM
same,IC50,HSC-3; hsc-3,0.688 µM
same,IC50,MIA PaCa-2; mia paca-2,0.111 µM
same,IC50,KYSE-140; kyse-140,3.9 µM
same,IC50,YAPC; yapc,4190 µM
same,IC50,NCI-H2009; nci-h2009,2.56 µM
same,IC50,HEC-1; hec-1,27.4 µM
same,IC50,NCI-H1436; nci-h1436,2770 µM
same,IC50,RT-4; rt-4,0.00586 µM
same,IC50,UMC-11; umc-11,2360 µM
same,IC50,NCI-H1792; nci-h1792,2.57 µM
same,IC50,MFE-296; mfe-296,0.153 µM
same,IC50,CAL-85-1; cal-85-1,0.000178 µM
